Measured values: patent US11046658B2, “Aminopyrazine derivatives as PI3K-γ inhibitors” (Incyte Corporation, priority 2018, dated 2021)
pIC50: −log10 of the molar value. Counter-ions that a name gives are not always drawn. Like-named read-outs stand apart in the source and are kept apart here.

What was measured:
[1] = target: PI3Kδ (p110δ/p85α) Recombinant Human Protein (Homo sapiens (Human), UniProt O00329); experiment: PI3Kδ Scintillation Proximity Assay; type: biochemical; details: 2 μM ATP, 20 μM PIP2
PI3Kδ (p110δ/p85α) Recombinant Human Protein, sequence (O00329 whole entry): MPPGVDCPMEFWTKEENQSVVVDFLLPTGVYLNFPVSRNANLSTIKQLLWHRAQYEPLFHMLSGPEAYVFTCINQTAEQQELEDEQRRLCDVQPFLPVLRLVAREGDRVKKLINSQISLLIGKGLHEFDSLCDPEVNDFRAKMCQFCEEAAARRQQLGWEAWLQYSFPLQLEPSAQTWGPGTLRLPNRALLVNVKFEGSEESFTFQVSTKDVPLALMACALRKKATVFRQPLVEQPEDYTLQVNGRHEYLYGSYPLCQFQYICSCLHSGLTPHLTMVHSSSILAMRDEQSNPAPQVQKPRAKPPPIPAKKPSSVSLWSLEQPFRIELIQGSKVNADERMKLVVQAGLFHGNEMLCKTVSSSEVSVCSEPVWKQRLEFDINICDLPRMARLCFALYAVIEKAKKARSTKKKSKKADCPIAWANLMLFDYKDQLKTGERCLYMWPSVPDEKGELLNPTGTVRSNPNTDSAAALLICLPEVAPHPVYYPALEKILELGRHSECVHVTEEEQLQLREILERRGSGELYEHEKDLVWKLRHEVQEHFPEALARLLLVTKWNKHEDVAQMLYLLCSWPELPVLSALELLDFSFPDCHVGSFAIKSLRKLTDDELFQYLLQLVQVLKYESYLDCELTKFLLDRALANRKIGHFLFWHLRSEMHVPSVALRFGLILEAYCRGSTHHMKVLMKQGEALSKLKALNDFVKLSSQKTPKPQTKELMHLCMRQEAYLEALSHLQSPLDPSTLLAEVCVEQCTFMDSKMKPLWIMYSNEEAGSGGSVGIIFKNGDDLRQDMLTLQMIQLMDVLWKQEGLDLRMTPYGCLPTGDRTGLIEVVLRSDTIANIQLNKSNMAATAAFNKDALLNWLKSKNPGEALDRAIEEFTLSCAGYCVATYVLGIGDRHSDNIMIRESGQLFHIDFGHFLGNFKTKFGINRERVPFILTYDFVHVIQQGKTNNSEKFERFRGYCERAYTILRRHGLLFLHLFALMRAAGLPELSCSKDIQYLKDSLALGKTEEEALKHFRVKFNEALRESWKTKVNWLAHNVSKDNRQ
PI3Kδ (p110δ/p85α) Recombinant Human Protein, sequence (P27986 whole entry partner): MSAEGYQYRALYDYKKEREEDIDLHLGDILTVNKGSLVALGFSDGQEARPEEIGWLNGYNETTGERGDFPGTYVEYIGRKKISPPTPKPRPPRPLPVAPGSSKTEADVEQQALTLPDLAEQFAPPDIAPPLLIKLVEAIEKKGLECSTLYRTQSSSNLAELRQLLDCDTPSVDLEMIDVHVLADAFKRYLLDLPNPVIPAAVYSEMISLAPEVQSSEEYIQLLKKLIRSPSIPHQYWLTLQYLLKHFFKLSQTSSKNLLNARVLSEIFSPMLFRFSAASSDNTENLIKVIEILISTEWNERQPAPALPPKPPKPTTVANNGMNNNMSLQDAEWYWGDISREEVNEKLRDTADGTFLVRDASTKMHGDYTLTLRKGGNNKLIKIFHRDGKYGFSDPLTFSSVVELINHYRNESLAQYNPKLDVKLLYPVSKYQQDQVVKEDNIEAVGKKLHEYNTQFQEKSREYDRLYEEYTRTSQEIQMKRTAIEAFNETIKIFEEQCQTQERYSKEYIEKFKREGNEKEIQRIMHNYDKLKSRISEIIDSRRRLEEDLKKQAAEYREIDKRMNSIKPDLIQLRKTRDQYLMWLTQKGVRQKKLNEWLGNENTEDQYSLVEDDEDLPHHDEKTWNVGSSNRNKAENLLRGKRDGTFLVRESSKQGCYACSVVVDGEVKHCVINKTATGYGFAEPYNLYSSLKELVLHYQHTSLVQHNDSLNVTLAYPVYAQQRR
Text: Materials: [γ-^33P]ATP (10 mCi/mL) and Wheat Germ Agglutinin (WGA) YSi SPA Scintillation Beads was purchased from Perkin Elmer (Waltham, Mass.). Lipid kinase substrate, D-myo-Phosphatidylinositol 4,5-bisphosphate (PtdIns(4,5)P2)D (+)-sn-1,2-di-O-octanoylglyceryl, 3-O-phospho linked (PIP2), CAS 204858-53-7, was purchased from Echelon Biosciences (Salt Lake City, Utah). PI3Kδ (p110δ/p85α) Recombinant Human Protein was purchased from Eurofins (St Charles, Mo.). ATP, MgCl2, DTT, EDTA, MOPS and CHAPS were purchased from Sigma Aldrich (St. Louis, Mo.).
The kinase reaction was conducted in polystyrene 384-well Greiner Bio-one white plate from Thermo Fisher Scientific in a final volume of 25 μL. Inhibitors were first diluted serially in DMSO and added to the plate wells before the addition of other reaction components. The final concentration of DMSO in the assay was 2%. The PI3Kδ assay was carried out at room temperature in 20 mM MOPS, pH 6.7, 10 mM MgCl2, 5 mM DTT and CHAPS 0.03%. Reactions were initiated by the addition of ATP, the final reaction mixture consisted of 20 μM PIP2, 2 μM ATP, 0.5 μCi [γ-^33P] ATP, 3.4 nM PI3Kδ. Reactions were incubated for 120 min and terminated by the addition of 40 μL SPA beads suspended in quench buffer: 163 mM potassium phosphate pH 7.8, 20% glycerol, 25 mM EDTA. The final concentration of SPA beads is 1.0 mg/mL. After the plate sealing, plates were shaken overnight at room temperature and centrifuged at 1500 rpm for 10 min, the radioactivity of the product was determined by scintillation counting on Topcount (PerkinElmer). IC50 determination was performed by fitting the curve of percent of the solvent control activity versus the log of the inhibitor concentration using the GraphPad Prism 6.0 software.

[2] = test system: Phosphorylated Ribosomal Protein S6 (RPS6) in THP-1 cells; experiment: THP-1 RPS6 ELISA Assay; type: cell-based, Human; details: Homo sapiens; for pIC50: THP-1 cells, 10 nM MCP-1, read-out: PI3Kγ_THP1_RPS6_ELISA IC50; for IC50: THP-1, read-out: PI3Kγ_THP1_RPS6_ELISA IC50 (nM)
Outline: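 Cells serum-starved overnight, pre-incubated with compounds 2 h at 37° C, then stimulated with 10 nM MCP-1 for 15 min. Lysates assayed for phospho-RPS6 by ELISA read at 450 nm. IC50 from percent inhibition vs log concentration curve fit.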

[3] = Table A4, cells given with + symbol

Compound `Cc1ccc(C(O)(C(N)=O)C(F)(F)F)cc1-c1cnc(N)c(C(=O)N2CCc3cccnc32)n1` (stereo not drawn) [Example 28, 2-(3-(5-amino-6-(2,3-dihydro-1H-pyrrolo[2,3-b]pyridine-1-carbonyl)pyrazin-2-yl)-4-methylphenyl)-3,3,3-trifluoro-2-hydroxypropanamide] has a pIC50 ([1]; Table A1) greater than 6.30 and a pIC50 ([2]; Table A1) greater than 7.00.
`Cc1ccc(C(O)(CNC(=O)C(C)(C)O)C(F)(F)F)cc1-c1cnc(N)c(C(=O)NC(C)C)n1` (stereo not drawn) [Example 41, 3-Amino-N-isopropyl-6-(2-methyl-5-(1,1,1-trifluoro-2-hydroxy-3-(2-hydroxy-2-methylpropanamido)propan-2-yl)phenyl)pyrazine-2-carboxamide trifluoroacetate] was tested, and the pIC50 ([1]; Table A1) was greater than 6.30 and the pIC50 ([2]; Table A1) was less than 6.00.
`C/C=C\c1nc(-c2cc(C(O)(C(N)=O)C(F)(F)F)ccc2C)cnc1N` (stereo not drawn) [Example 44, (Z)-2-(3-(5-amino-6-(prop-1-en-1-yl)pyrazin-2-yl)-4-methylphenyl)-3,3,3-trifluoro-2-hydroxypropanamide] gave a pIC50 ([1]; Table A2) greater than 6.30.
Work on `CCCc1nc(-c2cc(C(O)(C(N)=O)C(F)(F)F)ccc2C)cnc1N` (stereo not drawn) [Example 45, 2-(3-(5-amino-6-propylpyrazin-2-yl)-4-methylphenyl)-3,3,3-trifluoro-2-hydroxypropanamide] yielded a pIC50 ([1]; Table A2) greater than 6.30 and a pIC50 ([2]; Table A2) greater than 6.30.
In the case of `Cc1ccc(C(O)(C(N)=O)C(F)(F)F)cc1-c1cnc(N)c(C(F)(F)F)n1` (stereo not drawn) [Example 46, 2-(3-(5-Amino-6-(trifluoromethyl)pyrazin-2-yl)-4-methylphenyl)-3,3,3-trifluoro-2-hydroxypropanamide trifluoroacetate], the pIC50 ([1]; Table A2) was greater than 6.30.
`CNC(=O)c1ccc(-c2nc(-c3cc(C(O)(C(N)=O)C(F)(F)F)ccc3C)cnc2N)cn1` (stereo not drawn) [Example 80, 5-(3-amino-6-(5-(3-amino-1,1,1-trifluoro-2-hydroxy-3-oxopropan-2-yl)-2-methylphenyl)pyrazin-2-yl)-N-methylpicolinamide bistrifluoroacetate] showed a pIC50 ([1]; Table A3) greater than 6.30 and a pIC50 ([2]; Table A3) greater than 6.00.
`Cc1ccc(C(O)(C(N)=O)C(F)(F)F)cc1-c1cnc(N)c(-c2cncnc2)n1` (stereo not drawn) [Example 81, 2-(3-(5-amino-6-(pyrimidin-5-yl)pyrazin-2-yl)-4-methylphenyl)-3,3,3-trifluoro-2-hydroxypropanamide trifluoroacetate] was tested, and the pIC50 ([1]; Table A3) was greater than 6.30 and the pIC50 ([2]; Table A3) was greater than 6.30.
For `Cc1ccc(C(O)(C(N)=O)C(F)(F)F)cc1-c1cnc(N)c(-c2cccc(C(C)C)c2)n1` (stereo not drawn) [Example 90, 2-(3-(5-amino-6-(3-isopropylphenyl)pyrazin-2-yl)-4-methylphenyl)-3,3,3-trifluoro-2-hydroxypropanamide trifluoroacetate], the pIC50 ([1]; Table A3) was greater than 6.30 and the pIC50 ([2]; Table A3) was greater than 6.30.
`Cc1ccc(C(O)(C(N)=O)C(F)(F)F)cc1-c1cnc(N)c(-c2ccc(C3CC3)cc2)n1` (stereo not drawn) [Example 92, 2-(3-(5-amino-6-(4-cyclopropylphenyl)pyrazin-2-yl)-4-methylphenyl)-3,3,3-trifluoro-2-hydroxypropanamide trifluoroacetate] gave a pIC50 ([1]; Table A3) greater than 6.30 and a pIC50 ([2]; Table A3) greater than 6.30.
`CNC(=O)C(O)(c1ccc(C)c(-c2cnc(N)c(-c3cnn(C)c3)n2)c1)C(F)(F)F` (stereo not drawn) [Example 96, 2-(3-(5-Amino-6-(1-methyl-1H-pyrazol-4-yl)pyrazin-2-yl)-4-methylphenyl)-3,3,3-trifluoro-2-hydroxy-N-methylpropanamide] gave a pIC50 ([1]; Table A3) greater than 6.30 and a pIC50 ([2]; Table A3) greater than 7.00.
For `Cc1ccc(C(O)(CNC=O)C(F)(F)F)cc1-c1cnc(N)c(-c2cn[nH]c2)n1` (stereo not drawn) [Example 103, N-(2-(3-(5-amino-6-(1H-pyrazol-4-yl)pyrazin-2-yl)-4-methylphenyl)-3,3,3-trifluoro-2-hydroxypropyl)formamide trifluoroacetate], the pIC50 ([1]; Table A3) was greater than 6.30 and the pIC50 ([2]; Table A3) was greater than 6.30.
For `Cc1ccc(C(O)(C(N)=O)C(F)(F)F)cc1-c1cnc(N)c(N2CCN(C3CC3)C(=O)C2)n1` (stereo not drawn) [Example 112, 2-(3-(5-amino-6-(4-cyclopropyl-3-oxopiperazin-1-yl)pyrazin-2-yl)-4-methylphenyl)-3,3,3-trifluoro-2-hydroxypropanamide trifluoroacetate], the pIC50 ([1]; Table A4) was greater than 6.30 and the pIC50 ([2]; Table A4) was greater than 6.30.
Compound `Cc1ccc(C(O)(C(N)=O)C(F)(F)F)cc1-c1cnc(N)c(N2CCN(C(C)(C)C)C(=O)C2)n1` (stereo not drawn) [Example 113, 2-(3-(5-amino-6-(4-tert-butyl-3-oxopiperazin-1-yl)pyrazin-2-yl)-4-methylphenyl)-3,3,3-trifluoro-2-hydroxypropanamide trifluoroacetate] has a pIC50 ([1]; Table A4) greater than 6.30 and a pIC50 ([2]; Table A4) greater than 6.30.
With `Cc1ccc(C(O)(C(N)=O)C(F)(F)F)cc1-c1cnc(N)c(N2CCN(c3ccccc3)CC2)n1` (stereo not drawn) [Example 116, 2-(3-(5-amino-6-(4-phenylpiperazin-1-yl)pyrazin-2-yl)-4-methylphenyl)-3,3,3-trifluoro-2-hydroxypropanamide trifluoroacetate] the pIC50 ([1]; Table A4) was greater than 6.30 and the pIC50 [2, 3] was greater than 7.00.
`Cc1ccc(C(O)(C(N)=O)C(F)(F)F)cc1-c1cnc(N)c(N2CCN(c3cncs3)CC2)n1` (stereo not drawn) [Example 120, 2-(3-(5-amino-6-(4-(thiazol-5-yl)piperazin-1-yl)pyrazin-2-yl)-4-methylphenyl)-3,3,3-trifluoro-2-hydroxypropanamide trifluoroacetate] was tested, and the pIC50 [2, 3] was greater than 7.00.
Compound `Cc1ccc(C(O)(C(N)=O)C(F)(F)F)cc1-c1cnc(N)c(N2CCN(c3ccccc3C#N)CC2)n1` (stereo not drawn) [Example 122, 2-(3-(5-amino-6-(4-(2-cyanophenyl)piperazin-1-yl)pyrazin-2-yl)-4-methylphenyl)-3,3,3-trifluoro-2-hydroxypropanamide trifluoroacetate] has a pIC50 [2, 3] greater than 7.00.
For `Cc1ccc(C(O)(C(N)=O)C(F)(F)F)cc1-c1cnc(N)c(N2CCN(c3ccc(C#N)cc3)CC2)n1` (stereo not drawn) [Example 123, 2-(3-(5-amino-6-(4-(4-cyanophenyl)piperazin-1-yl)pyrazin-2-yl)-4-methylphenyl)-3,3,3-trifluoro-2-hydroxypropanamide trifluoroacetate], the pIC50 ([2]; Table A4) was greater than 6.30.
Compound `Cc1ccc(C(O)(C(N)=O)C(F)(F)F)cc1-c1cnc(N)c(N2CCN(CCC#N)CC2)n1` (stereo not drawn) [Example 125, 2-(3-(5-amino-6-(4-(2-cyanoethyl)piperazin-1-yl)pyrazin-2-yl)-4-methylphenyl)-3,3,3-trifluoro-2-hydroxypropanamide trifluoroacetate] has an IC50 [2] of less than 500 nM.
For `Cc1ccc(C(O)(C(N)=O)C(F)(F)F)cc1-c1cnc(N)c(N2CCN3C(=O)CCC3C2)n1` (stereo not drawn) [Example 126, 2-(3-(5-amino-6-(6-oxohexahydropyrrolo[1,2-a]pyrazin-2(1H)-yl)pyrazin-2-yl)-4-methylphenyl)-3,3,3-trifluoro-2-hydroxypropanamide trifluoroacetate], the pIC50 [2, 3] was greater than 7.00.
`Cc1ccc(C(O)(C(N)=O)C(F)(F)F)cc1-c1cnc(N)c(N2CCN(C(=O)c3ccco3)CC2)n1` (stereo not drawn) [Example 127, 2-(3-(5-amino-6-(4-(furan-2-carbonyl)piperazin-1-yl)pyrazin-2-yl)-4-methylphenyl)-3,3,3-trifluoro-2-hydroxypropanamide trifluoroacetate] was tested, and the IC50 [2] was less than 100 nM.
In the case of `Cc1ccc(C(O)(C(N)=O)C(F)(F)F)cc1-c1cnc(N)c(N2CCN(c3nccnc3C#N)CC2)n1` (stereo not drawn) [Example 128, 2-(3-(5-amino-6-(4-(3-cyanopyrazin-2-yl)piperazin-1-yl)pyrazin-2-yl)-4-methylphenyl)-3,3,3-trifluoro-2-hydroxypropanamide trifluoroacetate], the pIC50 [2, 3] was greater than 7.00.
